# Paper PMC10779950, “Binding Free Energy Calculation Based on the Fragment Molecular Orbital Method and Its Application in Designing Novel SHP-2 Allosteric Inhibitors” (International Journal of Molecular Sciences, 2024)
# Tests used:
# SHP-2 = SHP-2 ligand set; experimental binding free energy; ref Schrödinger FEP+ benchmark; cited from earlier work
# c-Met [1] = test system: c-Met; parameters: method as in earlier work; settings: FEP+ predicted ΔG from the benchmark; cited from earlier work
# SYK [2] = settings: experimental binding free energy, ref Schrödinger FEP+ benchmark; cited from earlier work
# THR-β = experiment: Experimental THR-β activity of agonists taken from Hu et al.; assay type: biochemical; settings: Table S4, converted from the experimental value
# Text: In the initial phase of our investigation, we conducted a retrospective evaluation of FMOScore’s performance concerning thyroid hormone receptor β (THR-β) agonists, using a set of 18 compounds taken from the work of Hu et al. [65]
# SYK [3] = test system: SYK; parameters: method as in Schrödinger FEP+ benchmark; settings: FEP+ predicted binding free energy, ref Schrödinger FEP+ benchmark; cited from earlier work
# HIF-2α = settings: experimental binding free energy, ref Schrödinger FEP+ benchmark; cited from earlier work
# c-Met [4] = test system: c-Met; parameters: method as in earlier work; settings: Schrödinger FEP+ benchmark; cited from earlier work
# SHP2^WT (1–593) = target: T1, SHP2^WT (1–593) (Homo sapiens, UniProt Q06124); experiment: SHP-2 prompt fluorescence phosphatase assay (DiFMUP), SHP2^WT; assay type: biochemical; settings: for inhibitory activity against SHP-2 (in words): Figure S4, DIFMUP substrate, mean ± SD (n = 3); for IC50: SHP2^WT, DiFMUP substrate, averages of three independent experiments, read-out: SHP-2 IC50; for ΔGexp: converted from IC50 with ΔGexp ≈ kBTlog IC50
# T1 construct: made in house; host or cells: E. coli BL21 Star (DE3), pET30 vector
# T1 sequence (Q06124 1-593): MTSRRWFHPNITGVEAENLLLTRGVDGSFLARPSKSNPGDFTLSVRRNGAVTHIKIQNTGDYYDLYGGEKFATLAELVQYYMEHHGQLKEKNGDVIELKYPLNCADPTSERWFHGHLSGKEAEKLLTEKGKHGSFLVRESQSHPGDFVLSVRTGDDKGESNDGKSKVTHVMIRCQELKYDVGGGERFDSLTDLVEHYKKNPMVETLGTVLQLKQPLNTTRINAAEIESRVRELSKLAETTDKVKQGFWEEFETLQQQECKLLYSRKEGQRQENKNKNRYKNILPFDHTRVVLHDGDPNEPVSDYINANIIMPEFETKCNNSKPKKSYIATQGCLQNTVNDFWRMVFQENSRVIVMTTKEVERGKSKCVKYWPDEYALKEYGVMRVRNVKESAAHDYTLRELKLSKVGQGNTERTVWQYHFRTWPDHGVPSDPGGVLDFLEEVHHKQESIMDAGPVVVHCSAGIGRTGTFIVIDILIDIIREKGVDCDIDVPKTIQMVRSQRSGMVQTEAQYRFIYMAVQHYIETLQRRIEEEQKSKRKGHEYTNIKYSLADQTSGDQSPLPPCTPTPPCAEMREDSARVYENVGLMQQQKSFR
# Protocol: (§1) Briefly, the constructs were transformed into BL21 Star^TM (DE3) cells and cultured at 37 °C for 3~4 h. Subsequently, the cells with high expression of SHP2 protein were harvested after being induced by IPTG and grown overnight at 18 °C. Cell pellets were resuspended in lysis buffer (25 mM imidazole, 50 mM Tris−HCl, 500 mM NaCl, 2.5 mM MgCl2, 1 mM tris(2-carboxyethyl)phosphine (TCEP), 1 μg/mL DNase1, and complete EDTA-free protease inhibitor) and lysed using Low Temperature Ultrahigh Pressure Continuous Flow Cell Disrupter (JNBIO), followed by ultracentrifugation. The supernatant was collected. Then, the SHP2 was purified from the collected supernatant by using HisTrap HP chelation column, TEV protease, and HiTrap Q FastFlow column.
# (§2) Then, the mixture was then incubated at 25 °C for 60 min. To initiate the reaction, the surrogate substrate DiFMUP (Invitrogen, cat. no. D6567, Shuzhou, China, 200 μM) was added and incubated at 25 °C for another 30 min. […] Fluorescence signal was detected using a microplate reader (Bio-Tek, Shanghai, China, Synergy2) at Ex/Em = 340/450 nm. Using control-based normalization, normalized IC50 regression curves were fitted to inhibitor dose response curves.
# SHP2^PTP (237–529) = target: T2, SHP2^PTP (237–529) (Homo sapiens, UniProt Q06124); experiment: SHP-2 prompt fluorescence phosphatase assay (DiFMUP), SHP2^PTP; assay type: biochemical; settings: catalytic PTP domain construct
# T2 construct: made in house; host or cells: E. coli BL21 Star (DE3), pET30 vector
# T2 sequence (Q06124 237-529): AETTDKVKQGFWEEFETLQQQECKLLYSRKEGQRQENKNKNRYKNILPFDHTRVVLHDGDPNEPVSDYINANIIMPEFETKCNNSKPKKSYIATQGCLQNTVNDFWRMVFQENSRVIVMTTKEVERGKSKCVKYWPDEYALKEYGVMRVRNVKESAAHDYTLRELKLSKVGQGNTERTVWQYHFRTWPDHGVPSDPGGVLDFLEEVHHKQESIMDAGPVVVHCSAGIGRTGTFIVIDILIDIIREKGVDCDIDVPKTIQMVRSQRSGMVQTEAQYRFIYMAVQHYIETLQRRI
# Protocol: as §1, §2
# TNKS2 [5] = test system: TNKS2; parameters: method as in Schrödinger FEP+ benchmark; settings: FEP+ predicted binding free energy, ref Schrödinger FEP+ benchmark; cited from earlier work
# TNKS2 [6] = settings: experimental binding free energy, ref Schrödinger FEP+ benchmark; cited from earlier work
Compound,inhibitory activity against SHP-2 (in words) (SHP2^WT (1–593)),IC50 (SHP2^WT (1–593)) [µM],ΔGexp (SHP2^WT (1–593)) [kcal/mol],fold decrease of biochemical inhibition compared to SHP099 (SHP2^WT (1–593); ratio of IC50) [fold],IC50 (SHP2^PTP (237–529)) [µM],fold reduced inhibition on morphing the piperazine ring (relative to compound 1) (SHP2^WT (1–593); ratio of IC50) [fold],Exp. ΔG (SHP-2) [kcal/mol],FEP (c-Met [1]) [kcal/mol],Exp. ΔG (SYK [2]) [kcal/mol],ΔGexp (THR-β) [kcal/mol],FEP (SYK [3]) [kcal/mol],Exp. ΔG (HIF-2α) [kcal/mol],Exp. ΔG (c-Met [4]) [kcal/mol],FEP (TNKS2 [5]) [kcal/mol],Exp. ΔG (TNKS2 [6]) [kcal/mol]
O=[N+]([O-])c1cc(Br)cnc1Sc1cccc(Cl)c1Cl [Compound S4],–,–,–,–,–,–,-5.82,–,–,–,–,–,–,–,–
"Nc1cc(NC2CCNCC2)cnc1-c1cccc(Cl)c1Cl [Compound 4, 2-(2,3-dichlorophenyl)-N5-(piperidin-4-yl) pyridine-3,5-diamine]",–,23.5 ± 2.86,-6.311,–,–,15,–,-7.41,-11.36,-5.453,-9.49,–,-8.9,–,–
"CC1(N)CCN(c2cnc(Sc3cccc(Cl)c3Cl)c(N)c2)CC1 [Compound 7, 5-(4-amino-4-methylpiperidin-1-yl)-2-((2,3-dichlorophenyl)thio)pyridin-3-amine]",–,11.3 ± 1.19,-6.747,–,–,–,–,-9.19,-10.79,-7.406,-10.29,–,-8.73,-9.01,-8.4

# Second part, led by results:
inhibitory activity against SHP-2 (in words) (SHP2^WT (1–593)),IC50 (SHP2^WT (1–593)) [µM],ΔGexp (SHP2^WT (1–593)) [kcal/mol],fold decrease of biochemical inhibition compared to SHP099 (SHP2^WT (1–593); ratio of IC50) [fold],IC50 (SHP2^PTP (237–529)) [µM],fold reduced inhibition on morphing the piperazine ring (relative to compound 1) (SHP2^WT (1–593); ratio of IC50) [fold],Compound,Exp. ΔG (SHP-2) [kcal/mol],FEP (c-Met [1]) [kcal/mol],Exp. ΔG (SYK [2]) [kcal/mol],ΔGexp (THR-β) [kcal/mol],FEP (SYK [3]) [kcal/mol],Exp. ΔG (HIF-2α) [kcal/mol],Exp. ΔG (c-Met [4]) [kcal/mol],FEP (TNKS2 [5]) [kcal/mol],Exp. ΔG (TNKS2 [6]) [kcal/mol]
potent inhibitory activity,1.49 ± 0.024,-7.943,16,> 100,–,"CC1(N)CCN(c2cnc(-c3cccc(Cl)c3Cl)c(N)c2)CC1 [Compound 1, 5-(4-amino-4-methylpiperidin-1-yl)-2-(2,3-dichlorophenyl) pyridin-3-amine]",–,-9.88,-12.39,-8.186,-12.21,-11.32,-9.14,–,–
potent inhibitory activity,2.29 ± 0.66,-7.690,–,–,–,"Nc1cc(N2CCC3(CCCC3N)CC2)cnc1Sc1cccc(Cl)c1Cl (stereo not shown) [Compound 8, 8-(5-amino-6-((2,3-dichlorophenyl)thio)pyridin-3-yl)-8-azaspiro[4.5]decan-1-amine]",–,-9.12,-9.78,-8.072,-10.6,–,-10.06,–,–
